Columns and labels:
[1] = system: SARS-CoV-2 virus (WA1/2020) strain; type: cell-based; conditions: for antiviral activity (in words): incubated with SARS-CoV-2; for % viral reduction: virus pre-incubated 10 minutes with sample (conc./dilution per Table 2A), diluted four times, added to vero cells, 48/72 hours, supernatant plaque assay
viral particles = conditions: electron microscopy; cited from earlier work

Compound	antiviral activity (in words) [1]	% viral reduction [1]	virucidal effect (in words) (viral particles)
CCCCC/C=C\C/C=C\CCCCCCCC(=O)O [LA, Linoleic acid]	showed antiviral activity	97.42%	lyse and completely disintegrate viral particles
Triton X100 [reference compound]	–	95.23%	–
CCCCC/C=C\C/C=C\C/C=C\CCCCC(=O)O [GLA, gamma-linolenic acid]	showed antiviral activity	96.98%	lyse and completely disintegrate viral particles
CC/C=C\C/C=C\C/C=C\CCCCCCCC(=O)O [ALA, α-linolenic acid]	showed antiviral activity	97.13%	–

From patent US20230218557A1, “A FATTY ACID BASED COMPOSITION FOR TREATMENT AND/OR PREVENTION OF ENVELOPED-VIRUS RELATED INFECTIONS” (priority 2020, published 2023)
